Values after ≈ are worked out from the molar mass of the structure shown. Active and inactive are the calls of the source. No cut-off for these calls is given here.
Assays:
[1] = biological target: Epidermal growth factor receptor (Homo sapiens) (UniProt P00533); assay: Inhibition of EGF binding to EGFR in human A431 cells; type: cell-based; conditions: A-431
Bacillus cereus = assay: Antibacterial activity against Bacillus cereus; type: functional
Corynebacterium bovis = assay: Antibacterial activity against Corynebacterium bovis; type: functional
[2] = system: Mycolicibacterium smegmatis; assay: Antibacterial activity against Mycobacterium smegmatis; type: functional
Klebsiella pneumoniae = assay: Antibacterial activity against Klebsiella pneumoniae; type: functional
A-431 = assay: Inhibition of phosphatidylinositol turnover in EGF-stimulated human A431 cells by liquid scintillation counting; type: functional, cell-based
Zone of skin = assay: Toxicity in human skin assessed as erythema; type: tissue-based
Staphylococcus aureus = assay: Antibacterial activity against Staphylococcus aureus; type: functional
Micrococcus luteus = assay: Antibacterial activity against Micrococcus luteus; type: functional
Bacillus anthracis = assay: Antibacterial activity against Bacillus anthracis; type: functional
Bacillus subtilis = assay: Antibacterial activity against Bacillus subtilis; type: functional

Epidermal growth factor receptor (Homo sapiens), sequence (P00533 whole entry): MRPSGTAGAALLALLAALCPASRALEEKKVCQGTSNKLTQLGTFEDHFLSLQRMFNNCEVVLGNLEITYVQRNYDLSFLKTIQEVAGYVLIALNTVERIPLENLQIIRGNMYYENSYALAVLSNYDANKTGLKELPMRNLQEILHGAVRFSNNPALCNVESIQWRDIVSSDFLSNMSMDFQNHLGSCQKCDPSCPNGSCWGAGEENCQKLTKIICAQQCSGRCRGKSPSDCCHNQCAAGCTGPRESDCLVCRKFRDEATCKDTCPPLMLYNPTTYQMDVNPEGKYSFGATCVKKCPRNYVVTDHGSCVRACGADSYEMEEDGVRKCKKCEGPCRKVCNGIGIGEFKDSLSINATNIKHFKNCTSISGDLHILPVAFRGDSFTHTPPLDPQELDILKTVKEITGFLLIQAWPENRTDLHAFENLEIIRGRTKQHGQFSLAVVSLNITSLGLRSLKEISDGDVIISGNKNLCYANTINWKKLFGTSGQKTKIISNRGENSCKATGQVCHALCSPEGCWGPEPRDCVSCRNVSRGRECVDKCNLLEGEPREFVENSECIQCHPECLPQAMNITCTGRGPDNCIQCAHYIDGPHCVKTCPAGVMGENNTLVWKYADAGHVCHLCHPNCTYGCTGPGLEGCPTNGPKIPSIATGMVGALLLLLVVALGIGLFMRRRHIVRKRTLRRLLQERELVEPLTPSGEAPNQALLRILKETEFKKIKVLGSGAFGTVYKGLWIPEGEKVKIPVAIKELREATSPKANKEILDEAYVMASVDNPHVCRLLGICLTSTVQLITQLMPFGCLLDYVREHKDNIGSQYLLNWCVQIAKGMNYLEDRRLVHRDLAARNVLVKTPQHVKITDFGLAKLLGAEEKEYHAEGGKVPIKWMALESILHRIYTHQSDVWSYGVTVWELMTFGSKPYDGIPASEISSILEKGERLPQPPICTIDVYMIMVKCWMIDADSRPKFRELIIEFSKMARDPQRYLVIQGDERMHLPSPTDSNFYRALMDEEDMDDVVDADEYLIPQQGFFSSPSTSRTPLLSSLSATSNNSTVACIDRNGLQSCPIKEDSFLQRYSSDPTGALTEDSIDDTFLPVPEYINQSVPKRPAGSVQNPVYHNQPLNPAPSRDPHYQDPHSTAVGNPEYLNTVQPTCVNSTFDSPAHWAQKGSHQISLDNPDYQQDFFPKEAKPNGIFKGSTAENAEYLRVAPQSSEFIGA

C=C[C@]1(C)CC[C@@](C)(C(C)C)c2cc3c4c(c[nH]c4c21)C[C@@H](CO)NC(=O)[C@H](C(C)C)N3C
Activity [1]: inactive

C=CC(C)(C)c1ccc2c3c(c[nH]c13)C[C@@H](CO)NC(=O)[C@H](C(C)C)N2C [PENDOLMYCIN]
MIC (Bacillus cereus): 50 µg/mL (≈ 135 µM)
MIC (Corynebacterium bovis): 50 µg/mL (≈ 135 µM)
MIC [2]: 50 µg/mL (≈ 135 µM)
MIC (Klebsiella pneumoniae): 100 µg/mL (≈ 271 µM)
Activity [1]: inactive
IC50 (A-431): 1 ng/mL (≈ 0.00271 µM)
Activity (Zone of skin): Toxic
MIC (Staphylococcus aureus): 25 µg/mL (≈ 67.7 µM)
MIC (Micrococcus luteus): 25 µg/mL (≈ 67.7 µM)
MIC (Bacillus anthracis): 50 µg/mL (≈ 135 µM)
MIC (Bacillus subtilis): 50 µg/mL (≈ 135 µM)

— ChEMBL document CHEMBL1151123, “Isolation of a New Indole Alkaloid, Pendolmycin, from Nocardiopsis” (J Nat Prod, 1988)
